Like-named read-outs stand apart in the source and are kept apart here.
Legend:
Type in all cases: cell-based, human
HCT116 (CTC) = test: proliferation assay, HCT116 colon tumor cells; details: folate-/glycine-free RPMI1640 with 25 nM leucovorin, 96 h, read-out: IC50s (SE) HCT116 (CTC)
Method: (§1) Proliferation assays were performed with engineered Chinese hamster ovary (CHO) cell lines R2 (transporter-null), PC43-10 (expresses RFC only), RT16 (FRα only), and R2/PCFT4 (PCFT only) cultured in folate-/glycine-free RPMI1640 supplemented with 25 nM leucovorin. Additional results are shown for HCT116 (colon tumor cells (CTC)), IGROV1 (epithelial ovarian cancer (EOC) cells), H460 (non-small cell lung cancer (NSCLC) cells), MIAPaCa-2 (pancreatic cancer (PaC) cells), and HPAC (PaC).
(§2) Cell culture and proliferation/protection assays. The HCT116 cell lines including the serine hydroxymethyltransferase (SHMT) 1, SHMT2, and methylene THF dehydrogenase 2 (MTHFD2) knockout (KO) cells were previously described (47,53). The H460 cell line was obtained from the American Type Culture Collection (Manassas, VA), whereas the MIA PaCa-2 cells were provided by Dr. Yubin Ge (Karmanos Cancer Institute). Cell lines were verified by STR analysis by Genetica DNA Laboratories (Burlington, NC). MTXRIIOua^R2-4 (i.e. R2) Chinese hamster ovary (CHO) cells were generously provided by Dr. Wayne Flintoff (University of Western Ontario) (54). From this parental R2 cell line, human RFC and PCFT were individually transfected to generate the isogenic CHO cell lines designated PC43-10 (RFC) and R2/PCFT4 (PCFT) (55-57). Human tumor cell lines were cultured in folate-free RPMI supplemented with 10% dialyzed fetal bovine serum (Sigma-Aldrich), 1% penicillin/streptomycin solution, 2 mM L-glutamine, and 25 nM leucovorin in a humidified atmosphere at 37° C. in the presence of 5% CO2 and 95% air. The CHO cell lines were cultured in alpha-minimal essential medium (alpha-MEM) supplemented with 10% bovine calf serum, 1% penicillin/streptomycin solution, and 2 mM L-glutamine. Additionally, the transfected CHO cell lines (i.e. R2/PCFT4 and PC43-10) were maintained under continuous selection with 1 mg/ml of G418. […]

H460 cells [1] = test: targeted metabolomics with [2,3,3-2H]serine tracer, H460 cells; details: 10 µM drug
Source text: Identification of the mitochondrial enzyme target for AGF291, AGF320, and AGF347 by targeted metabolomics. […] The cells were processed for LC-MS analyses of total serine, and of M+3, M+2, M+1, and M+0 (unlabeled) serine (where M+n represents species with n deuterium atoms). The results with the drug-treated cells were compared to those for untreated cells. For WT HCT116 cells, the results were compared to those for SHMT2 KO, MTHFD2 KO, and SHMT1 KO cells (KO of SHMT2, MTHFD2, and SHMT1, respectively (20)). For H460 cells, controls included non-targeted control (NTC) and SHMT2 shRNA knockdown (KD) cells.
Targeted Metabolomics. Targeted metabolomics were performed essentially as previously described (47, 53). Briefly, cells (H460, HCT116, MIA PaCa-2) (1 million cells /dish for vehicle-treated samples, 1.5 million cells/dish for drug-treated samples) were seeded in triplicate 60 mm dishes in 5 ml of folate-free RPMI (contains glycine and unlabeled serine) supplemented with 10% dialyzed fetal bovine serum, 1% penicillin/streptomycin, 2 mM L-glutamine, and 25 nM leucovorin. Cells were allowed to adhere for 24 h. […] After 16 h, the cells were washed with PBS (3×), the media was replaced with folate- and serine-free culture media (containing glycine) supplemented with 10% dialyzed fetal bovine serine, 25 nM leucovorin, and [2,3,3-^2H]serine (250 µM), including 10 µM drug or DMSO vehicle. The cells were incubated for 24 h. All incubations were at 37° C. with 5% CO2. The media was aspirated, and cells were washed (3×) rapidly (< 30 s) with 5 mL ice-cold PBS; metabolism was quickly quenched with methanol:water (80:20) at -80° C. Cells were allowed to rock on dry ice for 10 min to cover the entire dish with 80:20 methanol:water (at -80° C.), then harvested by scraping and pipetting into 1.5 mL Eppendorf tubes. […] The supernatants were collected and analyzed by reversed-phase ion-pairing chromatography coupled with negative-mode electrospray-ionization high-resolution mass spectrometry on a stand-alone Orbitrap (ThermoFisher Exactive). […]

H460 (NSCLC) = test: proliferation assay, H460 non-small cell lung cancer cells; details: folate-/glycine-free RPMI1640 with 25 nM leucovorin, 96 h, read-out: IC50s (SE) H460 (NSCLC)
Method: as §1, §2

H460 cells [2] = test: glycine/nucleoside protection of growth inhibition in H460 cells; details: for protection from growth inhibition by combined adenosine and glycine: adenosine 60 µM plus glycine 130 µM; for protection from growth inhibition by glycine or adenosine alone: glycine 130 µM or adenosine 60 µM, singly
Method: We also tested the protective effects of AICA (320 µM) which is metabolized to AICAR (ZMP) (AICARFTase substrate), thus circumventing the GARFTase step in de novo purine biosynthesis (27) (see FIG. 1). […] Analogous results were obtained with HCT116 and MIA PaCa-2 tumor cells (see FIG. 14).
For proliferation assays of the HCT116, H460, and MIA PaCa2 tumor cell lines, the cells were plated in 96-well plates in an identical manner to the CHO experiments, except that the maximal drug concentration was increased to 10 µM. Glycine/nucleoside protection experiments in CHO and tumor cell lines were performed in folate- and glycine-free RPMI 1640/10% dialyzed fetal bovine serum supplemented with 25 nM leucovorin without additions, or in the presence of adenosine (60 µM), thymidine (10 µM), glycine (130 µM) and/or 5-aminoimidazole-4-carboxamide (AICA) (320 µM). Growth of metabolite-treated cells was normalized to controls treated with metabolites and vehicle (i.e., DMSO) both singly and in combination. Treatments with all metabolites were performed in parallel on the same plate for a given drug.

IC50 (HCT116 (CTC); Homo sapiens, HCT-116)	IC50 (H460 (NSCLC); Homo sapiens, NCI-H460)	Compound	dTTP isotope distribution from [2,3,3-2H]serine (H460 cells [1])	protection from growth inhibition by combined adenosine and glycine (H460 cells [2])	protection from growth inhibition by glycine or adenosine alone (H460 cells [2])	IC50 (HCT116 (CTC))	IC50 (H460 (NSCLC))	reversal of growth inhibition by AICA (with glycine) (H460 cells [2]; AICA 320 µM with glycine)
2270 nM	461 nM	Nc1nc2ccn(CCCc3ccc(C(=O)N[C@@H](CCC(=O)O)C(=O)O)cc3)c2c(=O)[nH]1 [AGF291]	M+1 dTTP without M+2 dTTP	substantially protective	neither glycine nor adenosine alone was fully protective	–	–	–
–	–	Nc1nc2ccn(CCCCCc3ccc(C(=O)N[C@@H](CCC(=O)O)C(=O)O)s3)c2c(=O)[nH]1 [AGF320]	M+1 dTTP without M+2 dTTP	substantially protective	neither glycine nor adenosine alone was fully protective	737 nM	573 nM	modestly (and incompletely) reversed
–	–	(2-amino-4-oxo-3,4-dihydro-5H-pyrrolo[3,2-d]pyrimidin-5-yl)butyl)-2-fluorobenzoyl)-L-glutamic acid [AGF347]	M+1 dTTP without M+2 dTTP	substantially protective	neither glycine nor adenosine alone was fully protective	437 nM	214 nM	–

Source: US20230091810A1, “FIRST-IN-CLASS OF SHMT2 AND MTHFD2 INHIBITORS AS ANTITUMOR AGENTS” (Duquesne University of the Holy Spirit, priority 2017, published 2023)
